Measurements from patent US20090211893A1, “Photo-Activatable Amino Acids” (priority 2005, published 2009).

Legend:
[1] = tested on: COS7 cells; experiment: Cell viability after UV irradiation by trypan blue exclusion; format: cell-based, monkey
Procedure: COS7 (monkey kidney) cells were grown in DMEM high glucose (Gibco no. 11995; with L-glutamine and Na-pyruvate)+10% FCS. Typically, 3 cm2 of cells are needed for a cross-linking experiment with detection by western blotting. At about 70%, medium was replaced by LM-4 (DMEM lacking Met, Leu, Ile and Val and phenol red, supplemented with 5% dialyzed FCS) or by LM-2 (LM-4+1 mM of each Ile and Val). Photo-amino acids were added to a final concentration of 4 mM photo-Leu and photo-Ile, 1.7 mM photo-Met and cells were cultivated for further 22 h followed by washing with PBS and UV-irradiation using a 200 W high pressure mercury lamp (Oriel Photomax) with a glass filter to remove wavelengths shorter 310 nm. The samples were placed at a distance of 38 cm to the light source, corresponding to a illuminated area of 105 mm diameter. […] We used an irradiation time 1-3 min for experiments with living cells. […] Lysis of cells, SDS-PAGE and western blotting were done as described^33. For immunoprecipitation, cells were lysed in 20 mM Hepes/NaOH pH 7.4, 100 mM NaCl, 5 mM EDTA, 1% Triton X 100, 0.5% sodium deoxycholate, the lysate was cleared with protein-A beads and incubated with beads that were preincubated with polyclonal anti-myc or anti-HA antibody. Beads were collected and washed three times each with 20 mM Hepes/NaOH pH 7.25, 0.5% CHAPS and with 100 mM Tris-HCl pH 8.3, 150 mM NaCl, 2 mM EDTA, 0.1% w/v SDS, 0.5% w/v Nonidet P40, 0.5% w/v sodiumdeoxycholate. Proteins were eluted from beads by heating with reducing SDS-PAGE sample buffer.
Unnatural amino acids frequently are toxic to cells. To find out if this is the case for photo-amino acids of the invention, we monitored in COS7 cells protein biosynthesis by incorporation of [^3H]Phe and viability by trypan blue exclusion of cells grown in the presence or absence of the photo-amino acids photo-Leu, photo-Met and photo-Ile. Due to the lack of two essential amino acids in the growth medium, protein biosynthesis is reduced to about 65% of that in a full growth medium. […] Although cells grew slightly slower than in full growth medium, viability (Table 2) and cell morphology (not shown) were unaffected.

[2] = tested on: E. coli beta-galactosidase; experiment: Activity of beta-galactosidase expressed in cells grown with photo-amino acids; format: cell-based, monkey; conditions: COS 7 cells, 20 h in LM-2 with photo-amino acid; percent ± SD (n = 6) of value in DMEM + FCS
Text: We furthermore tested, whether proteins produced by cells grown with photo-amino acids are functional or not. For that, we transfected cells with GFP-fusion constructs of the small GTPase Rab5 and of mutated Rab5 that is constitutively activated (GFP-Rab5QL) or dominant negative (GFP-Rab5SN)^19 and monitored the GFP fluorescence by confocal microscopy. Four hours after transfection, when cells were switched to media containing photo-amino acids, no GFP signal was detectable (see FIG. 7). […] Both, staining intensity and localization were unaffected by the presence of either of the photo-amino acids. Taking into account a frequency of substitution of photo-Met for Met of 35% (see below) and the amounts of Met in Rab5 and GFP, more than 80% of the fusion protein will have photo-Met in both the Rab5- and the GFP-part of the fusion, more than 99% in at least one of the two parts. […] To corroborate this with a quantitative assay, we measured the activity of beta-galactosidase that was expressed in the absence or presence of photo-amino acids (see Table 4). Activity in LM-2 labeling medium was 79% of that in full DMEM. The addition of either of the three photo-amino acids or of a mixture of photo-Met and photo-Leu had no significant additional effect. E. coli beta-galactosidase contains 23 methionines of which on average 8 would be replaced by photo-Met; less than 0.01% of the protein are expected to have no substitution by photo-Met. We conclude that photo-amino acids are non-toxic to cultivated mammalian cells and can, at least partially, functionally replace branched chain amino acids and methionine.

CC1(CCC(N)C(=O)O)N=N1 [photo-Met, L-2-amino-5,5′-azi-hexanoic acid]
Cell viability ([1]; 1 min UV): 99.4 ± 0.5%
Cell viability ([1]; 1 min UV + 1 h chase): 96.1 ± 1.3%
Cell viability ([1]; 3 min UV): 99.5 ± 0.4%
Cell viability ([1]; 3 min UV + 1 h chase): 91.9 ± 6.8%
Cell viability ([1]; no UV + 1 h chase at 37 degree Celsius in PBS): 99.4 ± 0.4%
Cell viability ([1]; no UV, percent ± SD of viable cells): 99.8 ± 0.3%
beta-galactosidase activity [2]: 73 ± 5%
